Assays:
Haemonchus contortus [1] = assay: Test B: Haemonchus contortus burdens in infected mice after oral gavage; format: in vivo; settings: oral gavage 10.0 mg/kg body weight on day 0, Haemonchus contortus burdens on day 5 relative to vehicle-dosed controls
Description: For evaluating control of the barber pole worm (Haemonchus contortus), mice were each infected orally with 600 L3 Haemonchus contortus larvae on Day −3. On day 0, the infected mice were gavaged with a test compound (n=1) in a propylene glycol/glycerol formal solution at the rate of 10.0 mg/kg body weight. On day 5, the mice were euthanized and evaluated for Haemonchus contortus burdens relative to the vehicle-dosed controls. The range of means for the number of Haemonchus contortus in the various tests in which these compounds were studied was 92-184.

Haemonchus contortus [2] = assay: Test A: control of barber pole worm, eggs in culture media, mortality at L3 stage; format: cell-based; settings: 120 h
Description: For evaluating control of the barber pole worm (Haemonchus contortus), a test compound was solubilized in culture media (Earle's Balanced Salt Solution) containing Haemonchus contortus eggs to obtain a final test compound concentration of 2.0 ppm. The test unit was evaluated for mortality 120 hours later after which the eggs had hatched and had advanced to the L3 stage.

O=S(=O)(NCc1ccnc2ccccc12)c1ccc(C#CC2CC2)cc1 [Compound 2, 4-(2-cyclopropylethynyl)-N-(4-quinolinylmethyl)benzenesulfonamide]
% Efficacy (Haemonchus contortus [1]): 60%
mortality at 2 ppm (Haemonchus contortus [2]): 100%

O=S(=O)(NCc1ccnc2ccccc12)c1ccc(C#Cc2ccccn2)cc1 [Compound 4, 4-[2-(2-pyridinyl)ethynyl]-N-(4-quinolinylmethyl)benzenesulfonamide]
% Efficacy (Haemonchus contortus [1]): 89%
mortality at 2 ppm (Haemonchus contortus [2]): 100%

O=S(=O)(NCc1ccnc2ccccc12)c1ccc(C#CC2CC2)s1 [Compound 15, 5-(2-cyclopropylethynyl)-N-(4-quinolinylmethyl)-2-thiophenesulfonamide]
% Efficacy (Haemonchus contortus [1]): 93%
mortality at 2 ppm (Haemonchus contortus [2]): 100%

O=S(=O)(NCc1ccnc2ncccc12)c1ccc(C#CC2CC2)cc1 [Compound 48, 4-(2-cyclopropylethynyl)-N-(1,8-naphthyridin-4-ylmethyl)-benzenesulfonamide]
melting point: 193 to 195 °C

Source: patent publication US20140315857A1, “N- (4 -QUINOLINYLMETHYL) SULFONAMIDE DERIVATIVES AND THEIR USE AS ANTHELMINTICS” (E I DU PONT DE NEMOURS AND COMPANY, priority 2011, published 2014)
